# Data as given in US20250052985A1, “SYSTEM AND METHOD FOR QUANTITATIVE PHASE IMAGING FOR MULTI-PARAMETRIC SCREENING OF TUMOR THERAPY RESPONSE” (UNIVERSITY OF UTAH RESEARCH FOUNDATION, priority 2023, published 2025).
# Test system: primary tumor cells (Patient #1)
# Assay: QPI on primary cells after two-week expansion, Patient #1
# Format: cell-based
# Settings: Patient #1
# Experimental: In some embodiments, the QPI microscope system 110 applies multiparametric QPI to primary cells from two clinical samples stored in cell bank at, for example, the Huntsman Cancer Institute plated after thawing from liquid nitrogen and CD45+ depleted to reduce the number of immune cells, as shown in FIG. 26.
# For example, the primary cells are plated as a 2D monolayer in Clever's complete medium in a 96 well plate (e.g., the well-plate 105) and are allowed to acclimate to cell culture conditions for 18 h prior to dosing with treatments assigned to each patient by a physician. […] The image 3600 is a QPI image of primary cells from a direct from thaw patient derived sample. […] The graph 3610 is a histogram of cell mass used to computationally filter, using the electronic controller 155, for low mass cells (shown in red in the image 3600 and the graph 3605). By using a cutoff between the peaks at, for example, 72 pg, low mass cells can be isolated that are not growing and remove such cells from analysis. […] Using this cutoff, the electronic controller 155 measures the dose response for cells in each condition to determine the EC50 and DoR for each condition studied for the primary cells, as shown in the graph 3615. The graph 3615 is a dose response plot for primary cells treated with therapies assigned to the patient by a physician. […] In some embodiments, the electronic controller 155 determines a drug response in cells from patient derived samples. For example, the electronic controller 155 determines the drug response in therapy treatment samples from patient derived samples.
# In some embodiments, both samples are expanded from primary cells in 2D culture using optimized ex vivo culture conditions for 2 weeks, changing media every 3 days to further purify the tumor cells, as shown in a workflow 3700 of FIG. 27.
structure (smiles),measurement,value
COc1cccc2c1C(=O)c1c(O)c3c(c(O)c1C2=O)C[C@@](O)(C(=O)CO)C[C@@H]3O[C@H]1C[C@H](N)[C@H](O)[C@H](C)O1 [Doxorubicin],EC50 compared with eribulin,lower EC50 than eribulin
